Data taken from patent publication US20120252119A1, “METHODS FOR THE COLLECTION AND MATURATION OF OOCYTES” (priority 2009, published 2012).

Legend:
[1] = tested on: FSH-induced oocyte maturation; assay: EGFR kinase inhibitor on FSH-induced oocyte maturation in presence of cilostamide; type: cell-based, bovine
Experimental: The basic oocyte maturation medium (also referred to as the “IVM medium” or “IVM phase medium”) used for the IVM phase was a bovine maturation medium (termed Bovine VitroMat, Cook Australia), a medium formulated to closely replicate the ionic composition of bovine follicular fluid. Where indicated, the type-3 PDE specific inhibitor cilostamide (20 μM; Biomol Plymouth Meeting, Pa.) or the epidermal growth factor receptor (EGFR) kinase inhibitor, AG1478 (Alexis Biochemicals, San Diego, Calif.), were added to the IVM medium from a millimolar stock solution stored at −20° C. dissolved in DMSO. […]
At the end of the incubation, COCs were denuded and oocytes were fixed for 30 min in 4% paraformaldehyde in PBS (pH 7.4). Oocytes were then permeabilized in 0.1% Triton X-100 in 0.1% sodium citrate for 1 hour, then transferred to 0.001% 4′,6-diamidino-2-phenylindole (DAPI), a fluorescence stain for nuclear material, for 15 min. Oocytes were rinsed 3 times in PBS+0.03% BSA, mounted on slides and evaluated for nuclear status at 400× using an Olympus fluorescence microscope. Stages of germinal vesicle (GV) and subsequent meiotic development were assessed based on known techniques (Chohan and Hunter, 2003, Anim. Reprod. Sci. 76: 43-51). […]
Oocytes were then fixed and assessed for meiotic progression at 24 hours. […]

bovine oocytes [2] = assay: Bovine in vitro fertilization and embryo culture (cleavage, blastocyst development); type: cell-based
Experimental: At 24 or 30 hours after IVM, COCs were washed twice using Bovine VitroWash (Cook Australia), and transferred to insemination dishes containing in vitro fertilisation (IVF) medium (Bovine VitroFert, Cook Australia) supplemented with penicillamine (0.2 mM; Sigma), hypotaurine (0.1 mM; Sigma), and heparin (2 mg/ml; Sigma). Frozen semen from a single bull of proven fertility was used for insemination. Briefly, thawed semen was layered over a discontinuous (45%: 90%) Percoll gradient (Amersham Bioscience) and centrifuged for 20-25 minutes at 700 g. The supernatant was removed and the sperm pellet was washed with 500 μl Bovine VitroWash and centrifuged for a further 5 minutes at 200 g. […] Embryos were assessed for quality at Day 8 according to the definitions presented in Stingfellow and Seidel, 1998, Manual of the International Embryo Transfer Society. […]
Therefore, cumulus-oocyte complexes (COCs) were aspirated and selected in either follicular fluid, collection medium or collection medium supplemented with 100 μM forskolin (FSK) and 500 μM IBMX for 2 hours. […] Oocyte developmental capacity was then assessed after in vitro fertilization and embryo development was assessed by the cleavage rate and blastocyst rate on day 8. […]

[3] = tested on: cAMP content of the whole COCs; assay: cAMP content of bovine COCs, radioimmunoassay; type: cell-based; settings: agent alone, up to 2 hours, FIG. 2
Experimental: Oocytes were aspirated with their cumulus vestments intact (COCs). A subset of the COCs were denuded of their cumulus vestment prior to assay (DO). Aspiration and subsequent selection procedures (pre-IVM phase) were performed for 2 hours where oocytes (COCs and DOs) were processed in various media (termed “pre-IVM phase media” or “pre-IVM media”). These included processing of oocytes either in follicular fluid, or in two types of collection medium. […] Cyclic AMP content of COCs and denuded oocytes (DOs), i.e. those oocytes cultured as COCs but denuded of their cumulus vestment prior to assay, were measured using a radioimmunoassay method described and validated previously (Reddoch et al., 1986, Endocrinology 119: 879-886). […] Briefly, supernatants were collected, evaporated, resuspended in assay buffer (50 mM sodium acetate, pH 5.5) and acetylated by the addition of triethylamine (AJAX Chemicals, Sydney, Australia) and acetic anhydride (BDH Laboratory Supplies, Poole, England) 2:1 v/v. cAMP was measured in duplicates after appropriate dilution. ^125I-labelled cAMP (specific activity of 2175 Ci/mM) and cAMP antibody (as prepared by Reddoch et al supra) were added to samples and left overnight at 4° C. […] The supernatant was removed and the pellet dried and counted using a gamma counter. […]

human oocytes = assay: Human oocyte IVM, meiosis score; type: cell-based; settings: for % GV / % GVBD / % PB: IVM with 0.1 μM cilostamide and FSH
Experimental: Immature human cumulus-oocyte complexes (COC) were collected from young, healthy women (not from IVF patients). […] Oocyte pick-up was performed when the lead ovarian follicle reached 12 mm. Immature oocytes were then stratified to various treatments during either the Pre-IVM or IVM periods, as detailed below. In addition, time of removal of somatic cells from oocytes (denuding) during the oocyte maturation period was examined. The following trials were conducted: • Dose of PDE3-inhibitor (cilostamide) during IVM: 0 versus 0.1 versus 1.0 μM • cAMP modulators during Pre-IVM: control versus IBMX versus IBMX+forskolin • Effect of time of oocyte denuding on embryo development: 30 versus 40 versus 44-48 hours
At the oocyte pick-up, COC were collected immediately into pre-IVM treatments in VitroCollect medium (Cook Australia, Brisbane, Australia) and held for one hour. Following pre-IVM, COC were washed and then transferred to IVM treatments (e.g. dose of cilostamide) in VitroMat medium (Cook) and matured under standard conditions. At the various times post-denuding, oocytes were monitored for maturation (polar body [PB] extrusion). At the end of maturation (48 hours) a final meiosis score was given. As oocytes matured they were inseminated using standard intra-cytoplasmic sperm injection (ICSI) procedures using donor sperm. 24 hours later fertilisation rates were determined. Embryos were cultured for up to 6 days until developmental arrest using standard procedures.

[4] = tested on: oocyte-cumulus cell gap junctional communication; assay: Oocyte-cumulus cell gap junctional communication assay (calcein transfer); type: cell-based, bovine; settings: after 3 hours of IVM culture post pre-IVM phase, FIG. 7
Experimental: Cumulus-oocyte gap junctional communication (GJC) was measured by quantitative fluorescence microscopy of calcein transfer to the oocyte as described previously (Thomas et al., 2004, In “Biol. Reprod.”, pp 1142-1149). GJC was measured either after 2 hours of pre-IVM phase or followed by an additional 3 hours of IVM with or without cilostamide (20 μM). A mean number of 10-12 oocytes were used in each treatment group in each of four replicate experiments. After culture, COCs were transferred to a solution of 1 μM calcein-AM (3′,6′-di(O-acetyl)-2′,7′-bis[N,N-bis(carboxymethyl)amino methyl]-fluorescein, tetraacetoxy methyl ester; C-3100; Molecular Probes; Eugene, Oreg., USA) freshly prepared in a BSA-free Bovine VitroCollect (Cook Australia) supplemented with polyvinyl alcohol (PVA; 0.3 mg/ml). […] Prior to fluorescence microphotometry, COCs were completely denuded of their surrounding cumulus cells using vigorous pipetting so that only dye confined within the denuded oocyte after transport via gap junctions was measured. Within 30 minutes of denuding, the intra-oocyte fluorescence emission of calcein in oocytes was measured using a fluorophotometric-inverted microscope (Leica, Wetzlar, Germany). […]

bovine oocytes [5] = assay: Oocyte nuclear morphology assessment (GV configuration, GVBD, meiotic progression); type: cell-based
Experimental: At the end of the incubation, COCs were denuded and oocytes were fixed for 30 min in 4% paraformaldehyde in PBS (pH 7.4). Oocytes were then permeabilized in 0.1% Triton X-100 in 0.1% sodium citrate for 1 hour, then transferred to 0.001% 4′,6-diamidino-2-phenylindole (DAPI), a fluorescence stain for nuclear material, for 15 min. Oocytes were rinsed 3 times in PBS+0.03% BSA, mounted on slides and evaluated for nuclear status at 400× using an Olympus fluorescence microscope. Stages of germinal vesicle (GV) and subsequent meiotic development were assessed based on known techniques (Chohan and Hunter, 2003, Anim. Reprod. Sci. 76: 43-51). In brief, GV chromatin of bovine oocytes was classified into: GV I—condensed filamentous chromatin around the nucleolus and nuclear membrane; GV II—filamentous chromatin surrounding the nucleolus; GV III—filamentous chromatin clumps are distributed in the nucleus and the nucleolus has disappeared; GV IV—chromatin has condensed into a thick clump; Early diakenesis-chromatin beginning to condense into a single lump; Diakenesis-chromatin has condensed into a single lump; Metaphase I—tetrads are aligned on the spindle; and Metaphase II—the metaphase chromatin is evident as well as a small chromatin-containing polar body.
Oocytes were then fixed and assessed for meiotic progression and classified as GV (germinal vesical intact—still under meiotic arrest) or GVBD (germinal vesical breakdown—resumption of meiosis). A mean number of 45 oocytes were used in each treatment group and time-point from four replicate experiments. The presence of letters (a or b) above each column indicate a statistical difference between the means as determined by ANOVA analysis followed by Bonferronni's post hoc test, P<0.05.
Oocytes were exposed to pre-IVM phase media comprising pure follicular fluid, collection medium, or collection medium supplemented with cAMP modulators (forskolin and IBMX) (A), followed by extended culture in the presence (C; E) or absence (B; D) of the type-3 PDE inhibitor, cilostamide (20 μM), plus follicle stimulating hormone. Oocytes were then fixed and assessed for GV configuration at 2, 5 and 9 hours. A mean number of 40 oocytes were used in each treatment group and time-point from four replicate experiments.
As indicated above, oocytes were aspirated and selected in either follicular fluid, collection medium or collection medium supplemented with 100 μM forskolin (FSK) and 500 μM IBMX for 2 hours. […] Oocytes were then fixed and assessed for meiotic progression at 20, 24 and 28 hours. A mean number of 45 oocytes were used in each treatment group and time-point from four replicate experiments.

COc1cc2ncnc(Nc3cccc(Cl)c3)c2cc1OC [AG1478]
maturation percentage ([1]; FSH 100 mlU, cilostamide 20 μM, increasing doses of AG1478, 24 hours, from >80% without, FIG. 10): approximately 5%
meiotic recovery of FSH and cilostamide treated COCs ([1]; increasing doses of AG1478): completely prevented the meiotic recovery

CC(C)Cn1c(=O)n(C)c(=O)c2[nH]cnc21 [IBMX, 3-isobutyl 1-methylxanthine]
development to the blastocyst stage (bovine oocytes [2]; 30-60 minutes pre-IVM, IVM with 20 μM cilostamide, FIG. 11B): significantly higher than control
COC cAMP levels during pre-IVM [3]: maintained cAMP levels for 2 hours
% GV (human oocytes; 36-40 hours): 10.3%
% GVBD (human oocytes; 36-40 hours): 43.6%
% PB (human oocytes; 36-40 hours): 46.2%
% GV (human oocytes; 42-44 hours): 9.4%
% GVBD (human oocytes; 42-44 hours): 28.1%
% PB (human oocytes; 42-44 hours): 62.5%
% GV (human oocytes; 30 hours): 11.1%
% GVBD (human oocytes; 30 hours): 48.1%
% PB (human oocytes; 30 hours): 40.7%
% GV (human oocytes; 48 hours): 10.3%
% GVBD (human oocytes; 48 hours): 28.2%
% PB (human oocytes; 48 hours): 61.5%

CN(C(=O)CCCOc1ccc2[nH]c(=O)ccc2c1)C1CCCCC1 [cilostamide]
levels of gap junctional communication [4]: had no effect in maintaining the level of gap junctional communication
% Blastocysts (bovine oocytes [2]; collection phase CM without cAMP modulators, IVM +cilostamide, maturation time 24): 22%
effect of dose on resumption of meiosis (human oocytes; cilostamide 0.1 μM): non-inhibiting
Germinal Vesicle Breakdown (human oocytes; cilostamide 0.1 μM during IVM (n = 39)): 44%
effect of dose on resumption of meiosis (human oocytes; cilostamide 1.0 μM): inhibiting dose
Germinal Vesicle Breakdown (human oocytes; cilostamide 1.0 μM during IVM (n = 38)): 13%
rates of GVBD (bovine oocytes [5]; 2 h pre-IVM, 7 h IVM with FSH and cilostamide 20 μM, all pre-IVM treatments, FIG. 5): significantly lowered the rates of GVBD
oocytes at GV IV (bovine oocytes [5]; 9 hours, collection medium lacking cAMP modulators, 7 h IVM+cilostamide, FIG. 6E): 51%±10
oocytes at M I stage (bovine oocytes [5]; 20 hours of IVM with cilostamide, absence of FSH, FIG. 8A): 36%±4
oocytes at M I stage (bovine oocytes [5]; 20 hours of IVM+cilostamide, presence of FSH, FIG. 8B): 21%±4
oocytes progressed to M II stage (bovine oocytes [5]; 24 hours of IVM with cilostamide, absence of FSH, FIG. 8A): 50%
oocytes arrested at the M I stage (bovine oocytes [5]; cilostamide, absence of FSH, 24 hours of culture, FIG. 8A): 40-50%
